Laboratory results: ChEMBL document CHEMBL1156578, “Countercurrent separation of natural products” (J Nat Prod, 2008)

What was measured:
[1] = Octanol-water partition coefficient, log KOW in heptane-ethyl alcohol-water (4:1:4); format: physicochemical
[2] = Partition coefficient, log K in n-butyl alcohol-ethyl acetate-water by shake flask method (1:4:5); format: physicochemical
[3] = Partition coefficient, log K in n-hexane-ethyl acetate-ethyl alcohol-water (5:5:3:7); format: physicochemical
[4] = Partition coefficient, log K in n-hexane-ethyl acetate-ethyl alcohol-water (3:7:3:7); format: physicochemical
[5] = Partition coefficient, log K in n-hexane-ethyl acetate-ethyl alcohol-water (3:7:1:9); format: physicochemical
[6] = Partition coefficient, log K in n-hexane-ethyl acetate-ethyl alcohol-water (1:9:1:9); format: physicochemical
[7] = Partition coefficient, K in n-butyl alcohol-ethyl acetate-water by shake flask method (2:3:5)

| log K [1] | log K [2] | log K [3] | log K [4] | log K [5] | log K [6] | K [7] | SMILES |
| --- | --- | --- | --- | --- | --- | --- | --- |
| 1.51 |  |  |  |  |  |  | CCNC(=O)c1ccccc1 |
|  | 3.87 | 0.099 | 0.246 | 0.312 | 0.799 | 6.25 | COc1ccc([C@@H]2OC[C@H]3[C@@H]2CO[C@@H]3c2ccc(O[C@@H]3O[C@H](CO)[C@@H](O)[C@H](O)[C@H]3O)c(OC)c2)cc1OC [PHILLYRIN] |
| 1.56 |  |  |  |  |  |  | COc1ccc(/C=C/C(=O)O)cc1OC [O,O'-DIMETHYLCAFFEIC ACID] |
